The nature of data set [1]: Metabolic (microsomal) stability assay. The class given is in vitro ADME. The following applies: mouse liver microsomes, T1/2; read-out: DMPK-invitro-metabolic Stability (Mouse T1/2). The text has this:
Example 12: Metabolic (Microsomal) Stability Assay

Data set [2] deals with SOS1 (Homo sapiens (Human), UniProt Q07889). In words: Ras-SOS interaction assay (HTRF). The class given is biochemical. A general note: In TR-FRET formats the signal depends on donor and acceptor labels being close together.
The test system of data set [3] is MIA PaCa-2 cells (K-Ras G12C). In words: Ras-SOS cellular growth inhibition assay (CellTiter-Glo, 3D). The class given is cell-based. The note with it: Homo sapiens. The method in brief:
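Growth read by CellTiter-Glo luminescence about 5 days after dosing with 3-fold dilutions (9 points), added one day post-seeding. Cells: MIA PaCa-2, 3D culture on ultra-low-attachment surface, medium DMEM/Ham's F12 plus 10% FCS and 2.5% horse serum; IC50 by four-parameter fit.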

The test system of data set [4] is NCI-H1975 cells (EGFR T790M L858R). In words: EGFR-SOS cellular inhibition assay (CellTiter-Glo, 3D). The class given is cell-based. The note with it: Homo sapiens. Background: In ATP-based viability assays light output follows the ATP content of the culture.
Data set [5] in a line: In vitro plasma protein binding (PPB). The class given is in vitro ADME. The following applies: percentage of free/unbound compound.
Where [6] appears, read: K-RasG13D utilized, read-out: IC50 inhibition of SOS.
Where [7] appears, read: K-RasG13D, read-out: IC50 value against SOS1.
[8] abbreviates: MIA PaCa-2, 120 h, MIA PaCa-2, 3D proliferation, about 5 days, read-out: Bio-Cell-Prolif-3D (MiaPaca2 IC50).
[9] abbreviates: 120 h, NCI-H1975, 3D proliferation, about 5 days, read-out: Bio-Cell-Prolif-3D (H1975 IC50).
[10] abbreviates: NCI-H1975, EGFR T790M L858R, read-out: IC50 in inhibiting growth of NCI-H1975 cell line.
The mark [11] stands for this setting: MIA PaCa-2, MIA PaCa-2, read-out: IC50 in inhibiting MIA PaCa-2 cell growth.

Like-named read-outs stand apart in the source and are kept apart here.

Results on 15 compounds are retold here after patent US11648254B2 (Kumquat Biosciences Inc., priority 2021, dated 2023).

What is called IC50 is the concentration at which inhibition is half-maximal.

Chain of SOS1 (Q07889 564-1049): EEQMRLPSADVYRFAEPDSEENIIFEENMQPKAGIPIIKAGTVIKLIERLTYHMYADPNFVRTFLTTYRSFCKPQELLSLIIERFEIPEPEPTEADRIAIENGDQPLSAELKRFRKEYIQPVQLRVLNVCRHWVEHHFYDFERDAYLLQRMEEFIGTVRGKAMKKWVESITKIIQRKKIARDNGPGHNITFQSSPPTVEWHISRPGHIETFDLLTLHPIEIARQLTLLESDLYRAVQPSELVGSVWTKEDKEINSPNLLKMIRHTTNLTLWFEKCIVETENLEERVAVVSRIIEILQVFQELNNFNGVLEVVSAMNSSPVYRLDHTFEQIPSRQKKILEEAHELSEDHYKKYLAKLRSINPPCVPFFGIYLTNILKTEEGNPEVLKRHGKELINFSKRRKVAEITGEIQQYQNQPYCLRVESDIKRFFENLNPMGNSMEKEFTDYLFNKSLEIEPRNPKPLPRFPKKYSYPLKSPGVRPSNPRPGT

`C[C@@H](Nc1ncnc2nc(OC3CN(C)C3)c(C3(C#N)CC3)cc12)c1cccc(C(F)F)c1F` [Compound 405, (R)-1-(4-((1-(3-(difluoromethyl)-2-fluorophenyl)ethyl)amino)-7-((1-methylazetidin-3-yl)oxy)pyrido[2,3-d]pyrimidin-6-yl)cyclopropane-1-carbonitrile]: in data set [1], the half-life is > 3.33 h. Moreover, the IC50 was < 0.1 µM in data set [2] (setting [6]); < 0.05 µM in data set [2] (setting [7]); ≤ 1 µM in data set [3] (setting [8]); ≤ 1 µM in data set [4] (setting [9]); < 0.5 µM in data set [4] (setting [10]).
Turning to `Cc1nc(N[C@H](C)c2cccc(C(F)F)c2F)c2cc(C3(C#N)CC3)c(OC3CN(C)C3)nc2n1` [Compound 234, (R)-1-(4-((1-(3-(difluoromethyl)-2-fluorophenyl)ethyl)amino)-2-methyl-7-((1-methylazetidin-3-yl)oxy)pyrido[2,3-d]pyrimidin-6-yl)cyclopropane-1-carbonitrile], the half-life in data set [1] was 0.703 h. The IC50 is < 0.1 µM in data set [2] (setting [6]); < 0.05 µM in data set [2] (setting [7]); ≤ 1 µM in data set [3] (setting [8]); ≤ 1 µM in data set [4] (setting [9]); < 0.5 µM in data set [4] (setting [10]).
With `Cc1nc(N[C@H](C)c2cccc(C(F)(F)C(C)(C)O)c2F)c2cc(C3(C#N)CC3)c(Cl)nc2n1` [Compound 170, (R)-1-(7-chloro-4-((1-(3-(1,1-difluoro-2-hydroxy-2-methylpropyl)-2-fluorophenyl)ethyl)amino)-2-methylpyrido[2,3-d]pyrimidin-6-yl)cyclopropane-1-carbonitrile], in data set [1], the half-life is > 3.33 h. For the same compound, the IC50 in data set [2] (setting [6]) is < 0.1 µM; in data set [3] (setting [8]), ≤ 1 µM; in data set [3] (setting [11]), < 0.5 µM; in data set [4] (setting [9]), ≤ 1 µM; in data set [4] (setting [10]), < 0.5 µM.
In the case of `C[C@H](O)C(F)(F)c1cccc([C@@H](C)Nc2ncnc3nc(Cl)c(C4(C#N)CC4)cc23)c1F` [Compound 417, 1-(7-chloro-4-(((R)-1-(3-((S)-1,1-difluoro-2-hydroxypropyl)-2-fluorophenyl)ethyl)amino)pyrido[2,3-d]pyrimidin-6-yl)cyclopropane-1-carbonitrile], the half-life in data set [1] is > 3.33 h. The IC50 in data set [2] (setting [6]) is < 0.1 µM; in data set [2] (setting [7]) it was < 0.05 µM; in data set [3] (setting [8]) it was ≤ 1 µM; in data set [4] (setting [9]), ≤ 1 µM; in data set [4] (setting [10]), < 0.5 µM.
In the case of `Cc1nc(N[C@H](C)c2cccc(C(F)(F)[C@H](C)O)c2)c2cc(C3(C#N)CC3)c(Cl)nc2n1` [Compound 220, 1-(7-chloro-4-(((R)-1-(3-((S)-1,1-difluoro-2-hydroxypropyl)phenyl)ethyl)amino)-2-methylpyrido[2,3-d]pyrimidin-6-yl)cyclopropane-1-carbonitrile], the half-life in data set [1] was found to be 1.67 h. Moreover, the 50% inhibitory concentration (IC50) was < 0.1 µM in data set [2] (setting [6]); < 0.05 µM in data set [2] (setting [7]); ≤ 1 µM in data set [3] (setting [8]); < 0.5 µM in data set [3] (setting [11]); ≤ 1 µM in data set [4] (setting [9]); < 0.5 µM in data set [4] (setting [10]).
With `Cc1nc(N[C@H](C)c2cccc(C(F)F)c2F)c2cc(C3(C#N)CC3)c(O[C@@H]3CCOC3)nc2n1` [Compound 298, 1-(4-(((R)-1-(3-(difluoromethyl)-2-fluorophenyl)ethyl)amino)-2-methyl-7-(((R)-tetrahydrofuran-3-yl)oxy)pyrido[2,3-d]pyrimidin-6-yl)cyclopropane-1-carbonitrile], the half-life in data set [1] was determined as 0.025 h. Besides, the IC50 in data set [2] (setting [6]) was 0.1 to 1 µM; in data set [3] (setting [8]) it was ≤ 1 µM; in data set [4] (setting [9]) it was ≤ 1 µM.
For `COc1nc2ncnc(N[C@H](C)c3cccc(C(C)(F)F)c3F)c2cc1C1CCS(=O)(=O)CC1` [Compound 267, (R)-4-(4-((1-(3-(1,1-difluoroethyl)-2-fluorophenyl)ethyl)amino)-7-methoxypyrido[2,3-d]pyrimidin-6-yl)tetrahydro-2H-thiopyran 1,1-dioxide], the “DMPK-invitro-PPB (Mouse Unbound) [%]” value in data set [5] was 5.6%. The concentration for half-maximal inhibition (IC50) in data set [2] (setting [6]) is < 0.1 µM; in data set [2] (setting [7]) it was < 0.05 µM; in data set [3] (setting [8]), ≤ 1 µM; in data set [3] (setting [11]), < 0.5 µM; in data set [4] (setting [9]), ≤ 1 µM; in data set [4] (setting [10]), < 0.5 µM.
As for `COc1nc2nc(C)nc(N[C@H](C)c3cccc(C(F)(F)F)c3C)c2cc1C1CCS(=O)(=O)CC1` [Compound 118, (R)-4-(7-methoxy-2-methyl-4-((1-(2-methyl-3-(trifluoromethyl)phenyl)ethyl)amino)pyrido[2,3-d]pyrimidin-6-yl)tetrahydro-2H-thiopyran 1,1-dioxide], the “DMPK-invitro-PPB (Mouse Unbound) [%]” value in data set [5] is 0.31%. The half-inhibitory concentration (IC50) is < 0.05 µM in data set [2] (setting [7]); ≤ 1 µM in data set [3] (setting [8]); < 0.5 µM in data set [3] (setting [11]); ≤ 1 µM in data set [4] (setting [9]); < 0.5 µM in data set [4] (setting [10]).
Take `COc1nc2nc(C)nc(N[C@H](C)c3cccc(C(F)(F)F)c3F)c2cc1N1CCN(C(C)C)CC1` [Compound 211, (R)-N-(1-(2-fluoro-3-(trifluoromethyl)phenyl)ethyl)-6-(4-isopropylpiperazin-1-yl)-7-methoxy-2-methylpyrido[2,3-d]pyrimidin-4-amine]: in data set [5], the “DMPK-invitro-PPB (Mouse Unbound) [%]” value is given as 0.41%. In addition, the IC50 was < 0.1 µM in data set [2] (setting [6]); < 0.05 µM in data set [2] (setting [7]); ≤ 1 µM in data set [3] (setting [8]); < 0.5 µM in data set [3] (setting [11]); ≤ 1 µM in data set [4] (setting [9]); < 0.5 µM in data set [4] (setting [10]).
With `COc1nc2ncnc(N[C@H](C)c3cccc(C(F)(F)F)c3F)c2cc1N1CCS(=O)(=O)CC1` [Compound 308, (R)-4-(4-((1-(2-fluoro-3-(trifluoromethyl)phenyl)ethyl)amino)-7-methoxypyrido[2,3-d]pyrimidin-6-yl)thiomorpholine 1,1-dioxide], in data set [5], the “DMPK-invitro-PPB (Mouse Unbound) [%]” value stood at 2.91%. The IC50 in data set [2] (setting [6]) is < 0.1 µM; in data set [2] (setting [7]), < 0.05 µM; in data set [3] (setting [8]) it was ≤ 1 µM; in data set [3] (setting [11]), < 0.5 µM; in data set [4] (setting [9]) it was ≤ 1 µM; in data set [4] (setting [10]) it was < 0.5 µM.
Regarding `COc1nc2nc(C)nc(N[C@H](C)c3cccc(C(F)F)c3F)c2cc1N1CCS(=O)(=O)CC1` [Compound 131, (R)-4-(4-((1-(3-(difluoromethyl)-2-fluorophenyl)ethyl)amino)-7-methoxy-2-methylpyrido[2,3-d]pyrimidin-6-yl)thiomorpholine 1,1-dioxide], the “DMPK-invitro-PPB (Mouse Unbound) [%]” value in data set [5] stood at 4.01%. Moreover, the IC50 in data set [2] (setting [6]) is < 0.1 µM; in data set [2] (setting [7]) it was < 0.05 µM; in data set [3] (setting [8]) it was ≤ 1 µM; in data set [3] (setting [11]) it was < 0.5 µM; in data set [4] (setting [9]), ≤ 1 µM; in data set [4] (setting [10]) it was < 0.5 µM.
As to `COc1nc2nc(C)nc(N[C@H](C)c3cccc(C(F)(F)C(C)(C)O)c3)c2cc1N1CCN(C(C)C)CC1` [Compound 325, (R)-1,1-difluoro-1-(3-(1-((6-(4-isopropylpiperazin-1-yl)-7-methoxy-2-methylpyrido[2,3-d]pyrimidin-4-yl)amino)ethyl)phenyl)-2-methylpropan-2-ol], the “DMPK-invitro-PPB (Mouse Unbound) [%]” value in data set [5] was found to be 12.8%. For the same compound, the IC50 in data set [2] (setting [6]) was < 0.1 µM; in data set [2] (setting [7]) it was < 0.05 µM; in data set [3] (setting [8]), ≤ 1 µM; in data set [3] (setting [11]), < 0.5 µM; in data set [4] (setting [9]), ≤ 1 µM; in data set [4] (setting [10]), < 0.5 µM.
On to `COc1nc2ncnc(N[C@H](C)c3cccc(C(F)(F)F)c3F)c2cc1N1CCN(C(C)C)CC1` [Compound 159, (R)-N-(1-(2-fluoro-3-(trifluoromethyl)phenyl)ethyl)-6-(4-isopropylpiperazin-1-yl)-7-methoxypyrido[2,3-d] pyrimidin-4-amine], for which, in data set [5], the “DMPK-invitro-PPB (Mouse Unbound) [%]” value is 3.43%. In addition, the IC50 was < 0.1 µM in data set [2] (setting [6]); < 0.05 µM in data set [2] (setting [7]); ≤ 1 µM in data set [3] (setting [8]); < 0.5 µM in data set [3] (setting [11]); ≤ 1 µM in data set [4] (setting [9]); < 0.5 µM in data set [4] (setting [10]).
Regarding `COc1nc2ncnc(N[C@H](C)c3cccc(C(F)(F)F)c3C)c2cc1C1CCS(=O)(=O)CC1` [Compound 373, (R)-4-(7-methoxy-4-((1-(2-methyl-3-(trifluoromethyl)phenyl)ethyl)amino)pyrido[2,3-d]pyrimidin-6-yl)tetrahydro-2H-thiopyran 1,1-dioxide], the “DMPK-invitro-PPB (Mouse Unbound) [%]” value in data set [5] was found to be 2.93%. In addition, the IC50 in data set [2] (setting [7]) is < 0.05 µM; in data set [3] (setting [8]), ≤ 1 µM; in data set [3] (setting [11]) it was < 0.5 µM; in data set [4] (setting [9]), ≤ 1 µM.
For the compound `COc1nc2ncnc(N[C@H](C)c3cccc(C(F)(F)F)c3C)c2cc1C1CCN(C(C)C)CC1` [Compound 348, (R)-6-(1-isopropylpiperidin-4-yl)-7-methoxy-N-(1-(2-methyl-3-(trifluoromethyl)phenyl)ethyl)pyrido [2,3-d]pyrimidin-4-amine], the “DMPK-invitro-PPB (Mouse Unbound) [%]” value in data set [5] was found to be 1.03%. Besides, the IC50 in data set [2] (setting [6]) was < 0.1 µM; in data set [2] (setting [7]), < 0.05 µM; in data set [3] (setting [8]), ≤ 1 µM; in data set [4] (setting [9]), ≤ 1 µM; in data set [4] (setting [10]), < 0.5 µM.
